Key:
hemoglobin [1] = molecular target: T1, hemoglobin (Homo sapiens, UniProt P68871); conditions: relative to DPG; cited from earlier work
hemoglobin [2] = molecular target: T1, hemoglobin; conditions: pH 7.4, 37 degrees C.; cited from earlier work
[3] = Right shift of P50 in piglets, ITPP injected intravenously; format: in vivo
Method: ITPP was also injected intravenously (IV) in piglets.
(§1) Based upon this observation, a CaCl2 (equimolar to ITPP) solution was injected with the ITPP solution, so that the dissociated phosphate groups of ITPP were saturated. None of the side effects observed previously occurred. […] The level of the other ions sodium and potassium was unchanged after IV injection of ITPP in piglets.

[4] = system: circulating red blood cells; test: Right shift of the ODC in mice, ITPP injected intraperitoneally; format: in vivo; conditions: intraperitoneal, pH 7, 200µl, 45-150 mM (0.17-0.88 g/kg body weight)
Method: (§2) When ITPP (pH 7, 200µl) was injected intraperitoneally in mice, the P50 values of circulating red blood cells were shifted up to 23%. […] The level of ions, such as sodium, potassium and calcium were normal after ip injection. Six (6) mice were each injected intraperitoneally with 45-150 mM (= 0.17-0.88 g/kg body weight) of ITPP.

[5] = Tolerability, serum ions and blood counts in mice after oral ITPP; format: in vivo, C57BL/6 mice
Method: Three (3) control mice drank pure water, and four (4) control mice a solution of myoinositol hexaphosphate (IHP) (same concentration and pH as ITPP).
Figure 3 contains the mean values and SD for the serum concentration of sodium, potassium and calcium obtained on day 0, 7 and 11 after start drinking ITPP (4 mice), IHP (3 mice) or water (3 mice).
Blood counts were measured from all mice, on day 0, 7 and 11.

whole blood = test: In vitro P50 shift, whole blood / red blood cells incubated with ITPP; format: cell-based, murine
murine hemoglobin = murine hemoglobin (Mus musculus, UniProt P01942+P02088); test: In vitro P50 shift, mixtures of hemoglobin and ITPP, HEMOX analyzer; format: biochemical; conditions: with murine hemoglobin
Chain of murine hemoglobin (P01942 2-142 limits assumed): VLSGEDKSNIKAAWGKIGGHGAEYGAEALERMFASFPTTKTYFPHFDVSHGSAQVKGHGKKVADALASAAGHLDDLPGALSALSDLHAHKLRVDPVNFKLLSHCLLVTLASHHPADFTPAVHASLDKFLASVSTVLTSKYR
Chain of murine hemoglobin (P02088 2-147 limits assumed): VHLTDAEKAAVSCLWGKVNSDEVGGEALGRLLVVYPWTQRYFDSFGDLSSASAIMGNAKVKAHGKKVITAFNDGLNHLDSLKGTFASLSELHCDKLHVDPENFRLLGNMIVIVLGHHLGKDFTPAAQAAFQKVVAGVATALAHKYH
Method: ITPP was tested for its ability to induce a decrease of the O2-affinity of hemoglobin measured as a shift of the P50 value (P50 at 50% saturation of hemoglobin). With murine hemoglobin and whole blood, P50 shifts to higher PO2 of up to 250% with hemoglobin and up to 40% with whole blood were observed.
For the in vitro experiments ITPP was dissolved in deionized water, pH was adjusted at pH 7 and, for incubation with whole blood, the osmolality of the ITPP solutions was adjusted with glucose to 270-297 mOsM. Mixtures of hemoglobin and ITPP were measured with a HEMOX analyzer (PD Marketing, London) immediately. Red blood cells were incubated with ITPP for 1 hour at 37[deg.]C. Following incubation, the cells were washed 3 times with Bis-Tris-buffer (PH=7.0) and then used for P50 measurement.

VEGF mRNA = VEGF mRNA by RT-PCR in Lewis Lung carcinoma tumors of mice drinking ITPP; format: in vivo, C57BL/6 mice; conditions: LLC tumors, mice having received ITPP 20g/L orally, day 9, versus controls; quantification of gel assays
Method: ITPP, when administered orally, intravenously, or intraperitoneally, inhibits angiogenesis in growing tumors by enhancing PO2 in the forming tumors. […] All animals received then 1x10^6 Lewis Lung carcinoma (LLC) cells, injected in the dorsal cavity. At different time points, the VEGF mRNA were assayed by RT-PCR in the tumors growing in both groups of mice.
There was a difference in the level of mRNA of the VEGF gene in both groups. […] The RT-PCR agarose gel assay of VEGF mRNAs from tumor tissue taken from 2 mice each on day 15 after inoculation of LLC cells (track 1: controls, track 2: ITPP treated animals) and day 30 after inoculation (track 3: control animals, track 4: ITPP treated animals).
Quantification of the gel assays indicated a reduction by a factor of 10,000 of the amount of VEGF mRNAs detected in the tumors of animals having received ITPP, at day 9 and then, while differences remain between treated and untreated animals, they tend to decrease.

[6] = system: murine circulating red blood cells; test: Right shift of the O2-hemoglobin dissociation curve in mice, ITPP orally in drinking water; format: in vivo, C57BL/6 mice
Method: ITPP was dissolved in drinking water at a 20g/L-concentration (= 27mM, pH ~7.0.) and offered for drinking ad libitum.
Twelve (12) C57BL/6 mice were fed the ITPP-solution (20g/L-concentration = 27mM, pH -7.0) for 4 days (up to 25 ml per 24 hrs). Three (3) control mice drank pure water, and four (4) control mice a solution of myoinositol hexaphosphate (IHP) (same concentration and pH as ITPP). Blood was collected from all mice on day 0 (before treatment started), and on days 1, 2, 4, 6, 7, 8, 10, 11 and 12 (after treatment had started), in order to measure P50 values.

[7] = Serum ion levels in piglets after intravenous ITPP; format: in vivo; conditions: for Ca^2+ conc.: piglet's circulation blood
Method: In order to check possible side effects of ITPP the level of calcium in the serum of the injected piglet was determined. A strong drop in the Ca^2+ concentration in the animal's blood immediately after infusion indicated the possibility that ITPP, with 3 dissociated phosphate groups binds Ca^2+, reducing thus its availability as free ion in the blood. One day after infusion the concentration of Ca^2+ in the piglets' blood was restored to the normal value. Table 1: Ca2+ concentration in the piglet's circulation blood
as §1

[8] = Tolerability and serum ions in mice after intraperitoneal ITPP; format: in vivo
Method: as §2

T1 sequence (P69905 2-142 partner limits assumed): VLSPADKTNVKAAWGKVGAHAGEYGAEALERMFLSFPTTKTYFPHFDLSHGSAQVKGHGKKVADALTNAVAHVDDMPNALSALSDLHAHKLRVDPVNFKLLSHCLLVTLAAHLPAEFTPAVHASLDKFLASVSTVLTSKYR
T1 sequence (P68871 2-147 limits assumed): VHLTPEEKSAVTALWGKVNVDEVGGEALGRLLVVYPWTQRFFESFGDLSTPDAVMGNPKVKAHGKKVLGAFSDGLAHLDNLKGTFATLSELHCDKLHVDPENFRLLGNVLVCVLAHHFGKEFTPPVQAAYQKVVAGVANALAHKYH

O=P(O)(O)O[C@H]1[C@H](OP(=O)(O)O)[C@@H](OP(=O)(O)O)[C@H](OP(=O)(O)O)[C@@H](OP(=O)(O)O)[C@H]1OP(=O)(O)O [IHP, inositol hexaphosphate]
higher affinity to hemoglobin than DPG (hemoglobin [1]): 1000 fold
P50 of hemoglobin (hemoglobin [2]): ≤ 96.4 mm, Hg

O=P1(O)OC2C3OP(=O)(O)OP(=O)(O)OC3C3OP(=O)(O)OP(=O)(O)OC3C2OP(=O)(O)O1 (stereo not drawn) [ITPP, inositol-tripyrophosphate]
P50 shift ([3]; IV, CaCl2 solution (equimolar to ITPP) injected with the ITPP solution): approximately 20 % of the basal value
shift of P50 ([3]; intravenous): right shift of P50 was observed
P50 values of circulating red blood cells shifted [4]: up to 23%
basal value of the red blood cell count ([5]; 12 days after ingestion of ITPP, once ΔP50 becomes 0%): restored
toxicity ([5]; administered orally): little or no toxicity
number of white blood cells ([5]; blood from mice in different groups, day 0, 7 and 11): no significant differences
number of red blood cells ([5]; mice having ingested ITPP, blood counts day 0, 7 and 11): reduced
acceptance / harm to the animals ([5]; mice, ITPP-solution 20g/L (27mM) in drinking water for 4 days): neither rejected by the mice, nor harmful to the animals
level of ions, such as sodium and potassium and calcium ([5]; mice, after oral application, serum, day 0, 7 and 11): normal
lysis of the red blood cells (whole blood; in vitro): never occurred
P50 shifts to higher PO2 (whole blood; with murine whole blood): up to 40%
P50 shifts to higher PO2 (murine hemoglobin): up to 250%
reduction of the amount of VEGF mRNAs detected in the tumors (VEGF mRNA): 10,000 factor
P50 values after 12 days ([6]; ingestion stopped on day 4): back to control values
right shifts of P50 ([6]; mice, oral application, 27 mM): up to 31%
time lag before the maximum shift is attained ([6]; mice, oral, 27 mM): approximately 48 hrs
Ca^2+ conc. ([7]; 10 min after completion of injection (before injection 2.38)): 1.73 mmol/L
Ca^2+ conc. ([7]; 24 hrs after injection (before injection 2.38)): 2.36 mmol/L
level of calcium ([7]; piglets, IV, CaCl2 (equimolar to ITPP) injected with ITPP): remained constant
level of the other ions sodium and potassium ([7]; piglets, after IV injection of ITPP): unchanged
concentration well tolerated by mice ([8]; intraperitoneal injection): ≤ 150000 µM
level of ions, such as sodium, potassium and calcium ([8]; mice, after ip injection): normal

— EP1973398B1, “USE OF INOSITOL-TRIPYROPHOSPHATE IN TREATING TUMORS MEDIATED BY ANGIOGENESIS” (NormOxys, Inc., priority 2006, dated 2007)
